Patent US10201587B2, “Methods of inhibiting and treating biofilms using glycopeptide antibiotics” (MELINTA THERAPEUTICS, INC., priority 2008, dated 2019)
Converted amounts (≈) assume the structure as drawn. Where two headings read alike, the source gives them in different places.

What was measured:
MRSA ATCC 33591 [1] = assay: Time-kill in nutrient-depleted CAMHB; format: cell-based, S. aureus; conditions: stationary-phase, free-trough concentration 0.5 μg/mL, 24 hours
Protocol: (§1) Nutrient-depleted CAMHB from each respective strain was prepared by 3 rounds of inoculation of CAMHB with exponential-phase bacteria, incubation overnight at 37° C. with rotation (225 rpm) and centrifugation (8000×g for 30 minutes) to remove bacteria. After the final round of inoculation, growth and centrifugation, the pH of the nutrient-depleted CAMHB was adjusted to pH=7.0 and the spent medium was filter-sterilized using a […] membrane (Corning Incorporated, Corning, N.Y.).
(§2) Nutrient-depleted CAMHB containing diluted antimicrobial agents was inoculated with stationary-phase bacteria from overnight cultures of the S. aureus strains at approximately 10^7 colony-forming units (CFU)/mL. Other experiments compared the killing of stationary- and exponential-phase S. aureus ATCC 29213 when inoculated into nutrient-depleted CAMHB containing the test agents. For assays involving daptomycin, nutrient-depleted CAMHB was supplemented with 50 μg/ml CaCl2 (8). All time-kill studies were performed in 96-well deep-well plates at 37° C. with rotation (225 rpm) in a total volume of 750 μL. Bacteria were enumerated by serial-dilution plating. Bacteriostatic and bactericidal activity of the antimicrobial agents were defined as a reduction in viable cell counts of <3 or ≥3 log at 24 hours relative to the starting inoculum, respectively (33). Experiments were repeated at least three times and produced similar results; results from one experiment are presented.

MSSA ATCC 29213 [2] = assay: Time-kill in nutrient-depleted CAMHB; format: cell-based, S. aureus; conditions: stationary-phase, estimated free-trough concentration 0.5 μg/mL, 24 hours
Protocol: as §1, §2

VRSA VRS5 [3] = assay: Time-kill in nutrient-depleted CAMHB; format: cell-based, S. aureus
Protocol: as §1, §2

S. aureus ATCC 29213 [4] = assay: Membrane depolarization, DiSC3(5) fluorescence; format: cell-based; conditions: 30 min
Protocol: Bacteria were grown overnight in CAMHB and sub-cultured the following day in CAMHB to exponential phase (OD600≈0.25). Exponential- and stationary-phase cells were washed in membrane assay buffer with or without 5 mM glucose, respectively, and resuspended at an OD600=0.25. DiSC3(5) was added to a final concentration of 1.5 μM and the solution was incubated in the dark at ambient temperature for 30 minutes to allow loading of the fluorescent dye into cell membranes. After the loading period, cells were diluted 50-fold (OD600=0.005) in depolarization buffer with or without glucose for exponential- or stationary-phase cells, respectively. Assays were initiated by the addition of antimicrobial agents over a range of concentrations and were monitored in real time by fluorescence spectroscopy (λex=612, λem=665) for a period of 30 minutes. […] Experiments were repeated three times and produced similar results; results from one assay are presented.

S. aureus ATCC 29213 [5] = assay: Membrane permeability, SYTO-9/propidium iodide fluorescence; format: cell-based; conditions: stationary-phase cells, 30 min
Protocol: For membrane permeability assays, bacteria were prepared identically as described above for the membrane depolarization assay with the exception that SYTO-9 and propidium iodide (Invitrogen Corporation) were added at 5 μM and 30 μM, respectively. Experiments were repeated three times and produced similar results; results from one assay are presented.

MRSA ATCC 33591 [6] = assay: MBEC system in vitro biofilm (MIC and MBEC); format: cell-based, S. aureus
Protocol: (§3) The commercially-available MBEC™ system (Innovotech; Edmonton, AB, Canada) was used following the manufacturer's protocol (17) to establish in vitro biofilms of S. aureus and to determine the minimal biofilm eradication concentration (MBEC) of oritavancin and comparator antimicrobial agents. The MBEC represents the concentration of antimicrobial agent required to sterilize the biofilm after 24 hours of exposure. The MBEC™ system also allows for the determination of the minimal inhibitory concentration (MIC) of the test agent against planktonic cells under the conditions of the biofilm assay.
(§4) 150 μL of bacterial inocula at 10^7 CFU/mL in tryptic soy broth was aliquoted into each well of an MBEC plate. Biofilms were established for 24 hours in a rotary incubator at 37° C. and 150 rpm. For experiments involving 72-hour biofilms, peg lids were transferred each day to 96-well plates containing 150 μL/well of fresh tryptic soy broth and incubated another 24 hours. Peg lids with established biofilms were washed once in sterile saline (200 μL/well) and then placed in plates containing antimicrobial agents diluted in CAMHB (200 μL/well). Antimicrobial agents were serially diluted in CAMHB in 96-well plates and peg lids were exposed for 24 hours or for the indicated times. Following antimicrobial challenge, peg lids were washed once in sterile saline then placed in recovery plates containing CAMHB (200 μL/well). The recovery plates were sonicated for 5 minutes in an ultrasonic sonicating bath (VWR Aquasonic model 550D) at the maximum setting then incubated for 24 hours and the MBECs recorded. MBECs were determined from at least three independent experiments; results represent the ranges of MBECs obtained. To enumerate the biofilm colony forming units (CFUs) on individual control pegs, pegs were broken off the lid using sterile forceps placed in 1 ml sterile saline, sonicated for 5 min and vortexed for 1 min at the highest setting. Bacteria were then enumerated by serial-dilution plating.
(§5) To prevent loss of oritavancin due to binding to vessel surfaces (3), the CLSI now recommends inclusion of 0.002% polysorbate-80 for oritavancin broth microdilution MIC determinations (9).

MSSA ATCC 29213 [7] = assay: MBEC system in vitro biofilm (MIC and MBEC); format: cell-based, S. aureus; conditions: for MIC: Staphylococcus aureus
Protocol: as §3, §4, §5

VRSA VRS5 [8] = assay: MBEC system in vitro biofilm (MIC and MBEC); format: cell-based, S. aureus
Protocol: as §3, §4, §5

[9] = 24-hour biofilm, 24 hours of exposure, oritavancin without polysorbate-80

SMILES: CN[C@H](CC(C)C)C(=O)N[C@H]1C(=O)N[C@@H](CC(N)=O)C(=O)N[C@H]2C(=O)N[C@H]3C(=O)N[C@H](C(=O)N[C@H](C(=O)O)c4cc(O)cc(O)c4-c4cc3ccc4O)[C@H](O[C@H]3C[C@](C)(N)[C@@H](O)[C@H](C)O3)c3ccc(c(Cl)c3)Oc3cc2cc(c3O[C@@H]2O[C@H](CO)[C@@H](O)[C@H](O)[C@H]2O[C@H]2C[C@](C)(NCc3ccc(-c4ccc(Cl)cc4)cc3)[C@@H](O)[C@H](C)O2)Oc2ccc(cc2Cl)[C@H]1O [Oritavancin, N-(4-(4-chlorophenyl)benzyl)A82846B]
- reduction in viable cell counts (MRSA ATCC 33591 [1]): approx 0.4 log
- reduction in viable cell counts (MSSA ATCC 29213 [2]): approx 2.9 log
- activity at the 24-hour time point (VRSA VRS5 [3]; stationary-phase inoculum, fCmax 800 (16 μg/mL)): bactericidal (Bacteriostatic and bactericidal activity of the antimicrobial agents were defined as a reduction in viable cell counts of <3 or ≥3 log at 24 hours relative to the starting inoculum, respectively)
- decrease in viable cell counts (VRSA VRS5 [3]; stationary-phase, fCmax, 24 hours): approx 2.2 log
- reduction in viable cell counts (VRSA VRS5 [3]; stationary-phase, free-trough concentration 0.5 μg/mL, 24 hours): approx 1.2 log
- dissipation of membrane potential (DiSC3(5) fluorescence) (S. aureus ATCC 29213 [4]; exponential-phase cells): occurred in a concentration-dependent manner
- dissipation of membrane potential (DiSC3(5) fluorescence) (S. aureus ATCC 29213 [4]; stationary-phase cells): occurred in a concentration-dependent manner
- membrane permeability (SYTO-9 fluorescence) (S. aureus ATCC 29213 [5]): increased membrane permeability
- MBEC (MRSA ATCC 33591 [6]; [9]): 0.5 to 4 µg/mL
- MIC (MRSA ATCC 33591 [6]; Staphylococcus aureus, 24 h): 0.5 to 4 µg/mL (≈ 0.279 to 2.23 µM)
- MBEC (MSSA ATCC 29213 [7]; 24-hour biofilm, 1 hour exposure): 4 µg/mL
- MBEC (MSSA ATCC 29213 [7]; [9]): 2 to 4 µg/mL
- MBEC (MSSA ATCC 29213 [7]; 72-hour biofilms): 8 to 32 µg/mL
- MBEC relative to respective planktonic MIC (MSSA ATCC 29213 [7]; 72-hour biofilms, within each experiment): no more than one doubling dilution higher
- planktonic MIC relative to CLSI quality control range (MSSA ATCC 29213 [7]; MBEC assay): within quality control range
- MIC (MSSA ATCC 29213 [7]; 24 h): 2 µg/mL (≈ 1.12 µM)
- MIC (MSSA ATCC 29213 [7]; 72 h, read-out: planktonic MIC): 4 to 32 µg/mL (≈ 2.23 to 17.8 µM)
- MBEC (VRSA VRS5 [8]; [9]): 2 to 8 µg/mL
- MIC (VRSA VRS5 [8]; Staphylococcus aureus, VRSA, 24 h): 2 to 8 µg/mL (≈ 1.12 to 4.46 µM)
